What all share (test): relative viability (nuclei count vs DMSO), 5 days (fraction); higher = more cells survive
Compound in test [1]: CCCS(=O)(=O)Nc1ccc(F)c(C(=O)c2c[nH]c3ncc(-c4ccc(Cl)cc4)cc23)c1F [Vemurafenib] + CS(=O)(=O)CCNCc1ccc(-c2ccc3ncnc(Nc4ccc(OCc5cccc(F)c5)c(Cl)c4)c3c2)o1 [Lapatinib] (partner 2 µM)
The essentials: (§1)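 Relative viability is defined as nuclei in treated wells over nuclei in vehicle wells. Duplicate plates were run and medians reported. Lung cancer cell lines in 1536-well plates were dosed by pin tool one day after seeding, with one drug or with a fixed anchor-drug dose plus five library-drug doses (not always all listed) in √10 steps, and nuclei were counted after 5 days.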

Compound in test [2]: COc1cccc2cc(-c3nc([C@H]4CC[C@H](C(=O)O)CC4)n4ncnc(N)c34)[nH]c12 [OSI-027] + N=C(N)NC(=N)NCCc1ccccc1 [Phenformin] (partner 250 µM)
The essentials:
as §1

Compound in test [3]: COc1cccc2cc(-c3nc([C@H]4CC[C@H](C(=O)O)CC4)n4ncnc(N)c34)[nH]c12 [OSI-027] + Nc1ncn([C@H]2C[C@H](O)[C@@H](CO)O2)c(=O)n1 [Decitabine] (partner 2 µM)
The essentials:
as §1

Compound in test [4]: COc1cccc2cc(-c3nc([C@H]4CC[C@H](C(=O)O)CC4)n4ncnc(N)c34)[nH]c12 [OSI-027] + O=C(CCCCCCC(=O)Nc1ccccc1)NO [Vorinostat] (partner 1 µM)
The essentials:
as §1

Take RERF-LC-KJ: the relative viability in test [1] (first compound 0.03162 µM) came out at 0.782; in test [1] (first compound 0.1 µM), 0.903; in test [1] (first compound 0.3162 µM), 0.799; in test [1] (first compound 1 µM), 0.891; in test [2] (first compound 0.01 µM), 0.458; in test [2] (first compound 0.03162 µM), 0.423. In addition, the relative viability came out at 0.383 in test [2] (first compound 0.1 µM); 0.383 in test [2] (first compound 0.3162 µM); 0.361 in test [2] (first compound 1 µM); 0.617 in test [3] (first compound 0.01 µM); 0.664 in test [3] (first compound 0.03162 µM); 0.668 in test [3] (first compound 0.1 µM). Besides, the relative viability in test [3] (first compound 0.3162 µM) stood at 0.538; in test [3] (first compound 1 µM), 0.426; in test [4] (first compound 0.01 µM), 0.647; in test [4] (first compound 0.03162 µM), 0.685; in test [4] (first compound 0.1 µM), 0.595; in test [4] (first compound 0.3162 µM), 0.529. In test [4] (first compound 1 µM), the relative viability turned out to be 0.426.

For the cell line SK-LU-1, the relative viability stood at 0.777 in test [1] (first compound 0.03162 µM); 0.791 in test [1] (first compound 0.1 µM); 0.803 in test [1] (first compound 1 µM); 0.515 in test [2] (first compound 0.01 µM); 0.467 in test [2] (first compound 0.03162 µM); 0.447 in test [2] (first compound 0.1 µM). Further, the relative viability in test [2] (first compound 0.3162 µM) was 0.318; in test [2] (first compound 1 µM), 0.219; in test [3] (first compound 0.01 µM), 0.594; in test [3] (first compound 0.03162 µM), 0.631; in test [3] (first compound 0.1 µM), 0.663; in test [3] (first compound 0.3162 µM), 0.483. Moreover, the relative viability is 0.406 in test [3] (first compound 1 µM); 0.809 in test [4] (first compound 0.01 µM); 0.618 in test [4] (first compound 0.03162 µM); 0.682 in test [4] (first compound 0.1 µM); 0.563 in test [4] (first compound 0.3162 µM); 0.411 in test [4] (first compound 1 µM).

SK-MES-1: the relative viability in test [1] (first compound 0.03162 µM) came to 0.427; in test [1] (first compound 0.1 µM), 0.477; in test [1] (first compound 0.3162 µM), 0.493; in test [1] (first compound 1 µM), 0.486; in test [2] (first compound 0.01 µM), 0.637; in test [2] (first compound 0.03162 µM) it was 0.608. The relative viability in test [2] (first compound 0.1 µM) is 0.64; in test [2] (first compound 0.3162 µM), 0.576; in test [2] (first compound 1 µM), 0.305; in test [3] (first compound 0.01 µM) it was 0.362; in test [3] (first compound 0.03162 µM) it was 0.36; in test [3] (first compound 0.1 µM) it was 0.304. Further, the relative viability in test [3] (first compound 0.3162 µM) was 0.307; in test [3] (first compound 1 µM), 0.223; in test [4] (first compound 0.01 µM) it was 1.21; in test [4] (first compound 0.03162 µM), 1.08; in test [4] (first compound 0.1 µM), 0.972; in test [4] (first compound 0.3162 µM), 0.913. Moreover, the relative viability in test [4] (first compound 1 µM) stood at 0.593.

As for SW 1573, the relative viability came to 1.01 in test [1] (first compound 0.03162 µM); 0.916 in test [1] (first compound 0.1 µM); 1.02 in test [1] (first compound 0.3162 µM); 0.978 in test [1] (first compound 1 µM); 0.406 in test [2] (first compound 0.01 µM); 0.286 in test [2] (first compound 0.03162 µM). Besides, the relative viability was found to be 0.343 in test [2] (first compound 0.1 µM); 0.312 in test [2] (first compound 0.3162 µM); 0.191 in test [2] (first compound 1 µM); 0.411 in test [3] (first compound 0.01 µM); 0.535 in test [3] (first compound 0.03162 µM); 0.438 in test [3] (first compound 0.1 µM). For the same cell line, the relative viability in test [3] (first compound 0.3162 µM) was determined as 0.388; in test [3] (first compound 1 µM), 0.284; in test [4] (first compound 0.01 µM), 0.818; in test [4] (first compound 0.03162 µM) it was 0.718; in test [4] (first compound 0.1 µM), 0.669; in test [4] (first compound 0.3162 µM), 0.728. In test [4] (first compound 1 µM), the relative viability worked out at 0.393.

These data come from the supplement of paper PMC10307832.
